From ChEMBL document CHEMBL5543132, “Development of (2-(Benzyloxy)phenyl)methanamine Derivatives as Potent and Selective Inhibitors of CARM1 for the Treatment of Melanoma” (J Med Chem, 2024) come the findings set out here.

Molecules are shown by their SMILES.

Experiment [1] concerns the target T1, Histone-arginine methyltransferase CARM1 (Homo sapiens, UniProt Q86X55).
T1 sequence (Q86X55 whole entry): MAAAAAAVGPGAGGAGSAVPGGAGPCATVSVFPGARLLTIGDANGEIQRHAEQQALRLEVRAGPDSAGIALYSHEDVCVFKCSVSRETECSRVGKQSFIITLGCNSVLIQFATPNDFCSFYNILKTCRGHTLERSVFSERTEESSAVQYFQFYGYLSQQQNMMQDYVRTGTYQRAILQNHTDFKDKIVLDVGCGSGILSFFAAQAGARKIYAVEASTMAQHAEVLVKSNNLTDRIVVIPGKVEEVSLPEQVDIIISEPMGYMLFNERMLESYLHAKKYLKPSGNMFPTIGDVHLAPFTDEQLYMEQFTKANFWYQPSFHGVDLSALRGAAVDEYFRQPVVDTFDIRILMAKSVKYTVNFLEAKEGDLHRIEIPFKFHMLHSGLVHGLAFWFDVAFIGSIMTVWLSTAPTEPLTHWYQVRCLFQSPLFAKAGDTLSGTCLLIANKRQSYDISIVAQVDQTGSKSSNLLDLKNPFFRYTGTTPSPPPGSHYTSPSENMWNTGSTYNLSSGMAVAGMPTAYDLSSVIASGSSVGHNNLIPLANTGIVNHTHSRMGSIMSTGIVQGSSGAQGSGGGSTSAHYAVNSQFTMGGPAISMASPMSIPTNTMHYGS
Description: Inhibition of CARM1 (unknown origin)

Experiment [2] deals with Protein arginine N-methyltransferase 3 (Homo sapiens, UniProt O60678). Description: Inhibition of PRMT3 (unknown origin).
For experiment [3], the target named is Protein arginine N-methyltransferase 8 (Homo sapiens, UniProt Q9NR22). As to the kind of experiment: Inhibition of PRMT8 (unknown origin).
Experiment [4] deals with T2, Protein arginine N-methyltransferase 7 (Homo sapiens, UniProt Q9NVM4).
T2 sequence (Q9NVM4 whole entry): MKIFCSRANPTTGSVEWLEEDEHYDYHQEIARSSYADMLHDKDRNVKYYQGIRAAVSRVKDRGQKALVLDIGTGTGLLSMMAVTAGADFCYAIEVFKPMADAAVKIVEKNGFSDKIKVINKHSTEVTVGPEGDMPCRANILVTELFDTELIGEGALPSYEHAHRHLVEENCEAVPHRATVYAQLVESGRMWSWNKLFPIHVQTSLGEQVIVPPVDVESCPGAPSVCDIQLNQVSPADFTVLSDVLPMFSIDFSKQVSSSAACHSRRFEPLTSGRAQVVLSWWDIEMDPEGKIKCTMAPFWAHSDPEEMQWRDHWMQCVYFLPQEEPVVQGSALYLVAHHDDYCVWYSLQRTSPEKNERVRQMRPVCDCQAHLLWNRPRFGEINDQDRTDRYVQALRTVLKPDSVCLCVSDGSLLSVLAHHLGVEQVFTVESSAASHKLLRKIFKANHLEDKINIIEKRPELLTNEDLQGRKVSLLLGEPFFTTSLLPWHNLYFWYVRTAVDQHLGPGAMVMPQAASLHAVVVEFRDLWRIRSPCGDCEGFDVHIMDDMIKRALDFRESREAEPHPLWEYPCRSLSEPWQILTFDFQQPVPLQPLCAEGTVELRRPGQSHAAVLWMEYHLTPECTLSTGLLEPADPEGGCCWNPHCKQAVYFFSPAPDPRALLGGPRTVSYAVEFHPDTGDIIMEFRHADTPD
As to the kind of experiment: Inhibition of PRMT7 (unknown origin).

The target of experiment [5] is Protein arginine N-methyltransferase 5 (Homo sapiens, UniProt O14744). Description: Inhibition of PRMT5 (unknown origin).
For experiment [6], the target named is Protein arginine N-methyltransferase 6 (Homo sapiens, UniProt Q96LA8). As to the kind of experiment: Inhibition of PRMT6 (unknown origin).
Sequence of Protein arginine N-methyltransferase 6 (Q96LA8 whole entry): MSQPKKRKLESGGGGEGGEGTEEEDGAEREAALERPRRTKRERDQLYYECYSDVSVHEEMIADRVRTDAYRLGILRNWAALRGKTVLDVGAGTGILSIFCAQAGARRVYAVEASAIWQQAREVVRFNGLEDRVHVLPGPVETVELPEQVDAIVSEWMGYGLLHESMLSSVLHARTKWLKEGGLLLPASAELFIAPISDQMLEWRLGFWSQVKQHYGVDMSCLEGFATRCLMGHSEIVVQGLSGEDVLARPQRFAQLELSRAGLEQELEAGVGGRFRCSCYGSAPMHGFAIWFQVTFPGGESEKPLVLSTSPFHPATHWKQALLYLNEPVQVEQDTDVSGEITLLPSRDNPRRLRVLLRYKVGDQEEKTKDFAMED

Sequence of Protein arginine N-methyltransferase 5 (O14744 whole entry): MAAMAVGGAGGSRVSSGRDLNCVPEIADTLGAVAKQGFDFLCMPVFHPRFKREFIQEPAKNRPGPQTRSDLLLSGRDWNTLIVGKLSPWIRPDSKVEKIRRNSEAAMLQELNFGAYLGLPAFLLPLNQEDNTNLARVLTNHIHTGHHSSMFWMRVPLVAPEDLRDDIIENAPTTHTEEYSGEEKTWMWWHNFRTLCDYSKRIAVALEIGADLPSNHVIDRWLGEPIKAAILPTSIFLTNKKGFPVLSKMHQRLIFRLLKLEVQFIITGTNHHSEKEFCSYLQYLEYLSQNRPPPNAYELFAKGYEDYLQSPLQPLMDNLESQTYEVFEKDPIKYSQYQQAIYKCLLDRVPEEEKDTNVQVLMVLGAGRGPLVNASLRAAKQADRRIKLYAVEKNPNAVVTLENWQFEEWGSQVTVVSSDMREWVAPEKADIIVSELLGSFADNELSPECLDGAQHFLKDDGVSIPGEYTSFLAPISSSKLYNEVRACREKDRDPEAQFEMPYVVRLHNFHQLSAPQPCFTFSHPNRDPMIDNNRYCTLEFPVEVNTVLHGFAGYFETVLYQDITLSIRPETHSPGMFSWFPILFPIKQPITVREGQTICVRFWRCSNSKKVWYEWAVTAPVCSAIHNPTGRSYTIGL
Sequence of Protein arginine N-methyltransferase 8 (Q9NR22 whole entry): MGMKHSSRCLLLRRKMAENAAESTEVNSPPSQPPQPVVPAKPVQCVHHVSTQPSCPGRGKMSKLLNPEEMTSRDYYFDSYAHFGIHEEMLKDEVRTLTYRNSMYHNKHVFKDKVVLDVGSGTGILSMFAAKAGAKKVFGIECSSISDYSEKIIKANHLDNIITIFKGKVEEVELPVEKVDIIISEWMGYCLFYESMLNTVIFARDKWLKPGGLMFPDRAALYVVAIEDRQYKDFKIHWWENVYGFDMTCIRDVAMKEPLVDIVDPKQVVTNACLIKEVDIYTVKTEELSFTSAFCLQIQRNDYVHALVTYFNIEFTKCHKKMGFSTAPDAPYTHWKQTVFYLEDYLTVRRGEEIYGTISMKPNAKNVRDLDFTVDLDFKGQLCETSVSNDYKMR
Sequence of Protein arginine N-methyltransferase 3 (O60678 whole entry): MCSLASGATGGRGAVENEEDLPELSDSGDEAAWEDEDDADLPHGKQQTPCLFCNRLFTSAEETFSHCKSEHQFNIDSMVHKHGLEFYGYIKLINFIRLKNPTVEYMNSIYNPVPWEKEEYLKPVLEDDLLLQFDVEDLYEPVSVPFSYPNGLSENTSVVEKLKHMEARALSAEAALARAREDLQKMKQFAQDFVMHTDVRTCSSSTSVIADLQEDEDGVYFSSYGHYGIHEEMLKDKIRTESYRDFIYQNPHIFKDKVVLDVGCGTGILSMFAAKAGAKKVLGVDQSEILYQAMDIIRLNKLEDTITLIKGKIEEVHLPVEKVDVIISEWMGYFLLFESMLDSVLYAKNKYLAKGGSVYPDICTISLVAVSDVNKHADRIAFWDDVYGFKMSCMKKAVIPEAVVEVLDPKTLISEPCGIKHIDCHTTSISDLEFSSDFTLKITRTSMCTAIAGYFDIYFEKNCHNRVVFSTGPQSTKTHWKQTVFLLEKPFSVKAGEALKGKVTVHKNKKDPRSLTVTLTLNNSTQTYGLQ

As to `CNCC(O)CN1CCc2c(cccc2OCc2ccc(-c3nccs3)cc2)C1` (stereo unspecified), half-maximal inhibition in experiment [1] (IC50) required 0.021 µM.

As to `CNC[C@H](O)CN(C)Cc1ccccc1OCc1ccc(-c2nccs2)c(Cl)c1`, the IC50 (as a rule, the midpoint of a concentration-inhibition curve) is 0.942 µM in experiment [2]; 0.073 µM in experiment [3]; above 100 µM in experiment [4]; above 100 µM in experiment [5]; 0.064 µM in experiment [6].
